Measured values published in patent publication US6353111B1, “Trans olefinic glucokinase activators” (Hoffmann-La Roche Inc., priority 1999, dated 2002).

Experiments:
C57BL/6J mice = experiment: Glucokinase activator in vivo screen protocol (blood glucose after oral dosing); details: oral gavage 50 mg/kg after two hour fast, blood glucose at 1, 2, 4 and 6 hours post dose, active = p≦0.05 decrease for two consecutive time points
Description: Glucokinase Activator in vivo Screen Protocol
C57BL/6J. mice are orally dosed via gavage with Glucokinase (GK) activator at 50 mg/kg body weight following a two hour fasting period. Blood glucose determinations are made five times during the six hour post-dose study period.
Mice (n=6) are weighed and fasted for a two hour period prior to oral treatment. GK activators are formulated at 6.76 mg/ml in Gelucire vehicle (Ethanol:Gelucire44/14:PEG400q.s. 4:66:30 v/w/v. Mice are dosed orally with 7.5 μl formulation per gram of body weight to equal a 50 mg/kg dose. Immediately prior to dosing, a pre dose (time zero) blood glucose reading is acquired by snipping off a small portion of the animals tail (˜1 mm) and collecting 15 μl blood into a heparinized capillary tube for analysis. Following GK activator administration, additional blood glucose readings are taken at 1, 2, 4 and 6 hours post dose from the same tail wound. Results are interpreted by comparing the mean blood glucose values of six vehicle treated mice with six GK activator treated mice over the six hour study duration.

Row | Compound | glucokinase activator in vivo activity (decrease in blood glucose compared to vehicle) (C57BL/6J mice) | melting point
1 | CS(=O)(=O)c1ccc(/C(=C\C2CCCCC2)C(=O)Nc2nccs2)cc1[N+](=O)[O-] [Example 14, (E)-3-Cyclohexyl-2-(4-methanesulfonyl-3-nitro-phenyl)-N-thiazol-2-yl-acrylamide] | excellent glucokinase activator in vivo activity | 
2 | O=C(Nc1nccs1)/C(=C/C1CCCC1)c1ccc(Cl)c(Cl)c1 [Example 8, (E)-3-Cyclopentyl-2-(3,4-dichloro-phenyl)-N-thiazol-2-yl-acrylamide] |  | 57 to 59 °C
3 | CS(=O)(=O)c1ccc(/C(=C\C2CCCC2)C(=O)Nc2nccs2)cc1 [Example 3, (E)-3-Cyclopentyl-2-(4-methanesulfonyl-phenyl)-N-thiazol-2-yl-acrylamide] | excellent glucokinase activator in vivo activity | 172 to 173 °C
4 | CS(=O)(=O)c1ccc(/C(=C\C2CCCC2)C(=O)Nc2ccccn2)cc1Cl [Example 19, (E)-2-(3-Chloro-4-methanesulfonyl-phenyl)-3-cyclopentyl-N-pyridin-2-yl-acrylamide] | excellent glucokinase activator in vivo activity | 
5 | CC/C=C(/C(=O)Nc1nccs1)c1ccc(S(C)(=O)=O)cc1 [Example 1, (E)-2-(4-Methanesulfonyl-phenyl)-pent-2-enoic acid thiazol-2-ylamide] |  | 155 to 158 °C
6 | CNC(=O)NC(=O)/C(=C/C1CCCCC1)c1ccc(S(C)(=O)=O)c(C(F)(F)F)c1 [Example 27, (E)-1-[3-Cyclohexyl-2-(4-methanesulfonyl-3-trifluoromethyl-phenyl)-acryloyl]-3-methyl-urea] |  | 199 to 202 °C
7 | CS(=O)(=O)c1ccc(/C(=C\C2CCCCC2)C(=O)Nc2nccs2)cc1 [Example 4, (E)-3-Cyclohexyl-2-(4-methanesulfonyl-phenyl)-N-thiazol-2-yl-acrylamide] | excellent glucokinase activator in vivo activity | 
8 | CS(=O)(=O)c1ccc(/C(=C\C2CCCCCC2)C(=O)Nc2ncc(Br)s2)cc1 [Example 16, (E)-N-(5-Bromo-thiazol-2-yl)-3-cycloheptyl-2-(4-methanesulfonyl-phenyl)-acrylamide] | excellent glucokinase activator in vivo activity | 159 to 163 °C
9 | CS(=O)(=O)c1ccc(/C(=C\C2CCCC2)C(=O)Nc2nccs2)cc1Cl [Example 9, (E)-2-(3-Chloro-4-methanesulfonyl-phenyl)-3-cyclopentyl-N-thiazol-2-yl-acrylamide] | excellent glucokinase activator in vivo activity | 
10 | COC(=O)c1csc(NC(=O)/C(=C/CC2CCCC2)c2ccc(S(C)(=O)=O)cc2)n1 [Example 22, (E)-2-[4-Cyclopentyl-2-(4-methanesulfonyl-phenyl)-but-2-enoylamino]-thiazole-4-carboxylic acid methyl ester] | excellent glucokinase activator in vivo activity | 85 to 90 °C
11 | CS(=O)(=O)c1ccc(/C(=C\CC2CCCC2)C(=O)Nc2nccs2)cc1 [Example 21, (E)-4-Cyclopentyl-2-(4-methanesulfonyl-phenyl)-but-2-enoic acid thiazol-2-ylamide] | excellent glucokinase activator in vivo activity | 173 to 176 °C
12 | CS(=O)(=O)c1ccc(/C(=C\C2CCCC2)C(=O)Nc2ncc(Br)s2)cc1 [Example 7, (E)-N-(5-Bromo-thiazol-2-yl)-3-cyclopentyl-2-(4-methanesulfonyl-phenyl)-acrylamide] |  | 202 to 205 °C
13 | CS(=O)(=O)c1ccc(/C(=C\C2CCCCC2)C(=O)Nc2ccc(Br)cn2)cc1C(F)(F)F [Example 20, (E)-N-(5-Bromo-pyridin-2-yl)-3-cyclohexyl-2-(4-methanesulfonyl-3-trifluoromethyl-phenyl)-acrylamide] | excellent glucokinase activator in vivo activity | 
14 | CNC(=O)NC(=O)/C(=C/C(C)C)c1ccc(Cl)c(Cl)c1 [Example 26, (E)-1-[2-(3,4-Dichloro-phenyl)-4-methyl-pent-2-enoyl]-3-methyl-urea] |  | 177 to 178 °C
15 | CS(=O)(=O)c1ccc(/C(=C\CC2CCCC2)C(=O)Nc2nccs2)cc1C(F)(F)F [Example 25, (E)-4-Cyclopentyl-2-(4-methanesulfonyl-3-trifluoromethyl-phenyl)-but-2-enoic acid thiazol-2-ylamide] | excellent glucokinase activator in vivo activity | 
16 | CS(=O)(=O)c1ccc(/C(=C\C2CCCCC2)C(=O)Nc2nccs2)cc1C(F)(F)F [Example 12, (E)-3-Cyclohexyl-2-(4-methanesulfonyl-3-trifluoromethyl-phenyl)-N-thiazol-2-yl-acrylamide] | excellent glucokinase activator in vivo activity | 
17 | CS(=O)(=O)c1ccc(/C(=C\C2CCCCCC2)C(=O)Nc2nccs2)cc1 [Example 5, (E)-3-Cycloheptyl-2-(4-methanesulfonyl-phenyl)-N-thiazol-2-yl-acrylamide] | excellent glucokinase activator in vivo activity | 163 to 165 °C
